Measurements reported in US9751854B2 (Millennium Pharmaceuticals, Inc., priority 2014, dated 2017).

How the values were obtained:
[1] = test system: PC9 cell line; assay: Cellular anti-proliferative assay of VPS34 inhibitors in combination with a second therapeutic agent (Cell Titer Glo, 72 hrs); format: cell-based, human
Method: (§1) Example 57: Cellular Assay for Anti-proliferative Activity of VPS34 Inhibitors in Combination with a Second Therapeutic Agent
(§2) Cells were plated in 25 μl of media in 384 well plates at 1,000 cells per well (A431, PC9, and […] cell lines), 1,500 cells per well (NCI-H1975) or 2,000 cells per well (NCI-H1650). The plates were incubated for 24 hrs at 37° C., 6% CO2. The test compounds (see Table 38 below) were diluted serially, and 62.5 nL of each compound solution (or DMSO, if it is a single agent experiment) is added so the total added to the cells is 125 nL. Cell plates were incubated for 72 hrs at 37° C., 6% CO2. Cell Titer Glo reagent (Promega) was added. The plates were then incubated for 10 minutes at room temperature before luminescence was read on a plate reader such as the Pherastar Plus, Pherastar FS, or LEADSeeker imaging system.
(§3) Bliss antagonism was defined similarly.
(§4) Bliss dependence was defined as the percent cell survival at a certain dose combination divided by the percent cell survival predicted by Bliss independence. More specifically, the Bliss dependence is vAB/(vA*vB), where vAB is the viability with drug A and drug B added, while vA and vB are the viabilities with each drug alone. The dose for the combination used in this study is the inflection point for each drug alone.
(§5) Another way to evaluate additivity is through consideration of Loewe additivity. A difference between Bliss independence and Loewe additivity evaluations of drug combination data is that Bliss independence evaluates whether two drugs interact at all (the null hypothesis is that the mechanisms are entirely independent) and Loewe additivity evaluates whether two drugs interact in an additive fashion (the null hypothesis is that the two drugs work by identical mechanisms). For Bliss independence, the boundary between additivity and synergy must be measured. For Loewe additivity, this boundary is assumed to be at a value of 1. Thus, Bliss independence provides a boundary between antagonism and synergy or additivity. Loewe additivity provides a boundary between synergy and independence or antagonism.
(§6) Synergy can also be measured by nonlinear blending synergy. Nonlinear blending synergy [Peterson, J. J. and Novik, S. J. J Recept Signal Transduct Res, 27, 12-146 (2007))] is found by considering the percent cell death values along the nonlinear blending plot. If the maximum cell death occurs between the endpoints, then the blending synergy is the difference between the maximum cell death for the combined drugs and the maximum cell death for the either drug alone.
(§7) A derivative of Loewe additivity is the Combination Index, I (see Chou T. C., Talalay P. Adv. Enzyme Reg., 22: 27-55 (1984) and Berenbaum M. C. J. Theor. Biol., 114:413-431 (1985)). This measure is based on the shape of the isobologram which represents 50% viability (for a review of the use of isobolograms in analysis of drug combinations, see Tallarida, R. J. J. Pharm. Exp. Therap. 319:1-7 (2006)).
(§8) The results in Table 38A were summarized by categorizing the Combination Index, I. A mean Combination Index in the range (0.7-1.3) is classified as Additivity. A mean in the range (0-0.7) is classified as Synergy. A mean in the range (1.3-2) is classified as Subadditivity. A mean greater than 2 is classified as Antagonism. […] In this case, the Nonlinear Blending Synergy is used instead to generate a call (Table 38B). The categorization is similar to the Combination Index. A Nonlinear Blending Synergy within the range (−20, 20) is classified as Additive. A value below −20 is classified as Antagonism, while a value above 20 is classified as Synergy.

[2] = test system: NCI-H1650 cell line; assay: as above; format: cell-based, human; conditions: NCI H-1650; for Blending Synergy: in combination with Erlotinib (Compound Y)
Method: as §1, §2, §3, §4, §5, §6, §7, §8

[3] = test system: NCI-H1975 cell line; assay: as above; format: cell-based, human
Method: as §1, §2, §3, §4, §5, §6, §7, §8

[4] = molecular target: human VPS34 (Homo sapiens (Human), UniProt Q8NEB9); assay: Human VPS34 enzyme assay (Adapta TR-FRET ADP detection); format: biochemical; conditions: IC50 range class
Sequence of human VPS34 (Q8NEB9 whole entry): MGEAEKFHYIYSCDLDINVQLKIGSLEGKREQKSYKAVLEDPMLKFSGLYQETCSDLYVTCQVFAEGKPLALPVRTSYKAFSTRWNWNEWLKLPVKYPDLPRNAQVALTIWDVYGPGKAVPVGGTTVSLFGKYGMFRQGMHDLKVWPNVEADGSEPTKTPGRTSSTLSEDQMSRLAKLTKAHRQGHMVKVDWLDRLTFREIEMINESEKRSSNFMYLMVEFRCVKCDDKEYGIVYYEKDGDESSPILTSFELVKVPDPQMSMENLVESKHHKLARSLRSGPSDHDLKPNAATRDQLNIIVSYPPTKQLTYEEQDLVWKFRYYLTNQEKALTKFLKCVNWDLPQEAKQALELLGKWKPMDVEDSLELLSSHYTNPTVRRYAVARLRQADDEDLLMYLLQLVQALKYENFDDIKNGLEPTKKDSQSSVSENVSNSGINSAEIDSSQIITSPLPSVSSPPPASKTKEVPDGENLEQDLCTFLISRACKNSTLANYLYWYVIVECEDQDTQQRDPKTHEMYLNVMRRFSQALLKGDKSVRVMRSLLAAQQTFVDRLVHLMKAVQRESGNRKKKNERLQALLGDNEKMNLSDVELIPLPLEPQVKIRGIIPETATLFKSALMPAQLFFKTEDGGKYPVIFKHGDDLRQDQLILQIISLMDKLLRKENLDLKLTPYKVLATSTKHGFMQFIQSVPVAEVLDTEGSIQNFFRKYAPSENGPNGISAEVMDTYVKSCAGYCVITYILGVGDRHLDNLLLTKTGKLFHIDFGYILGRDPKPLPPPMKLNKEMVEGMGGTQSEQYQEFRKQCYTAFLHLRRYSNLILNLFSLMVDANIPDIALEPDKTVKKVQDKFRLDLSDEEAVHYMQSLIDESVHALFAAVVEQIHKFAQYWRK

[5] = test system: A431 cell line; assay: Cellular anti-proliferative assay of VPS34 inhibitors in combination with a second therapeutic agent (Cell Titer Glo, 72 hrs); format: cell-based
Method: as §1, §2, §3, §4, §5, §6, §7, §8

[6] = in combination with AZD9291 (Compound Y)
[7] = in combination with AZD9291, call from Combination Index
[8] = in combination with Afatinib (Compound Y)
[9] = in combination with Afatinib, call from Combination Index
[10] = in combination with CO-1686 (Compound Y)
[11] = in combination with CO-1686, call from Combination Index
[12] = in combination with Erlotinib (Compound Y)
[13] = in combination with Erlotinib, call from Combination Index
[14] = in combination with Erlotinib, call from Nonlinear Blending Synergy

Row | IC50 [4] [nM] | SMILES | Combination Index [1, 6] | Meaning [1, 7] | Combination Index [1, 8] | Meaning [1, 9] | Combination Index [1, 10] | Meaning [1, 11] | Combination Index [1, 12] | Meaning [1, 13] | Combination Index [2, 6] | Combination Index [2, 8] | Combination Index [2, 10] | Blending Synergy [2] | Combination Index [3, 6] | Combination Index [3, 8] | Combination Index [3, 10] | Combination Index [5, 10] | Meaning [5, 11] | Combination Index [5, 8] | Meaning [5, 9] | other results
1 | < 10 | Cc1c(-c2ccnc(NC(=O)C3CC3)c2)cnc(Cl)c1NS(=O)(=O)c1ccc(F)cc1F [Compound I-308, N-(6-chloro-5-{[(2,4-difluorophenyl)sulfonyl]amino}-4-methyl-3,4′-bipyridin-2′-yl)cyclopropanecarboxamide] | 1.33 | Subadditivity (A mean in the range (1.3-2) is classified as Subadditivity) | 1.49 | Subadditivity (A mean in the range (1.3-2) is classified as Subadditivity) | 1.19 | Additivity (A mean Combination Index in the range (0.7-1.3) is classified as Additivity) | 1.36 | Subadditivity (A mean in the range (1.3-2) is classified as Subadditivity) | 0.53 | 0.55 | 0.36 | 27.0 | 0.72 | 0.84 | 0.60 | 0.88 | Additivity (A mean Combination Index in the range (0.7-1.3) is classified as Additivity) |  |  | Blending Synergy [5, 6]: 10.2; Meaning ([5]; in combination with AZD9291, call from Nonlinear Blending Synergy): Additivity; Blending Synergy [5, 8]: 11.2; Meaning ([5]; in combination with Afatinib, call from Nonlinear Blending Synergy): Additivity; Blending Synergy [5, 12]: 15.2; Meaning [5, 14]: Additivity
2 | < 10 | CC(=O)Nc1cc(-c2cnc(C)c(NS(=O)(=O)c3ccc(Cl)cc3F)c2)ccn1 [Compound I-94, N-(5-{[(4-chloro-2-fluorophenyl)sulfonyl]amino}-6-methyl-3,4′-bipyridin-2′-yl)acetamide] |  |  | 1.04 | Additivity (A mean Combination Index in the range (0.7-1.3) is classified as Additivity) |  |  | 0.91 | Additivity (A mean Combination Index in the range (0.7-1.3) is classified as Additivity) |  | 0.65 |  | 23.69 |  | 0.54 |  |  |  | 0.23 | Synergy (A mean in the range (0-0.7) is classified as Synergy) | Combination Index [5, 12]: 0.38; Meaning [5, 13]: Synergy (A mean in the range (0-0.7) is classified as Synergy)
3 | < 10 | CC(=O)Nc1cc(-c2cnc(C)c(NS(=O)(=O)c3ccc(F)cc3F)c2)ccn1 [Compound I-41, N-(5-{[(2,4-difluorophenyl)sulfonyl]amino}-6-methyl-3,4′-bipyridin-2′-yl)acetamide] | 0.92 | Additivity (A mean Combination Index in the range (0.7-1.3) is classified as Additivity) | 1.02 | Additivity (A mean Combination Index in the range (0.7-1.3) is classified as Additivity) | 0.84 | Additivity (A mean Combination Index in the range (0.7-1.3) is classified as Additivity) | 1.02 | Additivity (A mean Combination Index in the range (0.7-1.3) is classified as Additivity) | 0.92 | 0.72 | 0.58 | 20.5 | 0.45 | 0.58 | 0.51 | 0.74 | Additivity (A mean Combination Index in the range (0.7-1.3) is classified as Additivity) | 0.24 | Synergy (A mean in the range (0-0.7) is classified as Synergy) | Combination Index [5, 6]: 0.62; Meaning [5, 7]: Synergy (A mean in the range (0-0.7) is classified as Synergy); Combination Index [5, 12]: 0.38; Meaning [5, 13]: Synergy (A mean in the range (0-0.7) is classified as Synergy)
4 | 10 to 50 | Cc1nccc(Nc2cc(-c3cnc(C)c(C(=O)N4CCC4)c3)ccn2)n1 [Compound I-304, Azetidin-1-yl(6-methyl-2′-((2-methylpyrimidin-4-yl)amino)-3,4′-bipyridin-5-yl)methanone] | 0.98 | Additivity (A mean Combination Index in the range (0.7-1.3) is classified as Additivity) |  |  | 0.90 | Additivity (A mean Combination Index in the range (0.7-1.3) is classified as Additivity) |  |  | 0.80 |  | 0.47 |  | 1.00 |  | 0.77 | 0.99 | Additivity (A mean Combination Index in the range (0.7-1.3) is classified as Additivity) |  |  | Combination Index [5, 6]: 0.78; Meaning [5, 7]: Additivity (A mean Combination Index in the range (0.7-1.3) is classified as Additivity)
5 | < 10 | CC(=O)Nc1cc(-c2cnc(Cl)c(NS(=O)(=O)c3ccc(F)cc3F)c2C)ccn1 [Compound I-153, N-(6-chloro-5-{[(2,4-diflourophenyl)sulfonyl]amino}-4-methyl-3,4′-bipyridin-2′-yl)acetamide] |  |  | 1.17 | Additivity (A mean Combination Index in the range (0.7-1.3) is classified as Additivity) |  |  | 0.97 | Additivity (A mean Combination Index in the range (0.7-1.3) is classified as Additivity) |  | 0.64 |  | 23.76 |  |  |  |  |  | 0.23 | Synergy (A mean in the range (0-0.7) is classified as Synergy) | Blending Synergy [3, 8]: 8.72; Blending Synergy [5, 12]: 16.3; Meaning [5, 14]: Additivity
6 | 10 to 50 | CC(=O)Nc1cc(-c2cnc(N)c(S(=O)(=O)NCCc3ccccc3)c2)ccn1 [Compound I-148, N-{6-amino-5-[(2-phenylethyl)sulfamoyl]-3,4′-bipyridin-2′-yl}acetamide] |  |  |  |  |  |  |  |  |  |  |  |  |  |  |  |  |  |  |  | 
7 | 10 to 50 | Cc1nccc(Nc2cc(-c3cnc(C)c(N4CCCN(C)S4(=O)=O)c3)ccn2)n1 [Compound I-288, 6-methyl-5-(6-methyl-1,1-dioxido-1,2,6-thiadiazinan-2-yl)-N-(2-methylpyrimidin-4-yl)-3,4′-bipyridin-2′-amine] |  |  |  |  |  |  |  |  |  |  |  |  |  |  |  |  |  |  |  | 
8 | 10 to 50 | CC(=O)Nc1cc(-c2cnc3ccn(CC4CC4)c3c2)ccn1 [Compound I-93, N-{4-[1-(cyclopropylmethyl)-1H-pyrrolo[3,2-b]pyridin-6-yl]pyridin-2-yl}acetamide] |  |  |  |  |  |  |  |  |  |  |  |  |  |  |  |  |  |  |  | 
9 | < 10 | CC(=O)Nc1cc(-c2cnc(N)c(S(=O)(=O)N(C)Cc3ccccc3)c2)ccn1 [Compound I-76, N-{6-amino-5-[benzyl(methyl)sulfamoyl]-3,4′-bipyridin-2′-yl}acetamide] |  |  |  |  |  |  |  |  |  |  |  |  |  |  |  |  |  |  |  | 
